Holding throughout (type): physicochemical
A short description of data set [1]: Amorphous content after conditioning in HFA134a. How it is done:
Heating is performed at a temperature of 30-50° C., more preferably at a temperature of 35-45° C., and most preferably at a temperature of 38-42° C. The heating step, in the presence of the propellant, is a conditioning step for the API, in order to reduce the amorphous content of the API, without affecting the PSD. Amorphous content may be determined by solution microcalorimetry. Fluticasone propionate was conditioned in a drug-addition vessel. A 5% concentration of fluticasone propionate in HFA134a was treated at 40° C. for 48-72 h with a gentle rocking motion. HFA134a was vented and the remaining material was assessed in regard to its amorphous content.

Data set [2] can be described thus: Particle size distribution by Malvern, conditioning studies untreated versus treated. The procedure:
Fluticasone propionate was conditioned in a drug-addition vessel. A 5% concentration of fluticasone propionate in HFA134a was treated at 40° C. for 48-72 h with a gentle rocking motion. HFA134a was vented and the remaining material was assessed in regard to its amorphous content.

Data set [3] is described as follows: Scanning electron microscope images pre- and post-conditioning. The conditions noted are these: post-conditioning versus pre-conditioning, Experiments 1 and 2. The text has this:
FIGS. 1 and 2 show scanning electron microscope images of fluticasone propionate, pre-conditioning (the first image in each Figure) and post-conditioning (the second image in each Figure). FIGS. 1 and 2 are taken from Experiments 1 and 2 in Table 1 and show scanning electron microscopic images of fluticasone propionate, pre-conditioning (the first image in each Figure) and post-conditioning (the second image in each Figure).

The nature of data set [4]: Particle size distribution by Malvern, conditioning studies untreated versus treated. The source holds these as a separate data set.
Setting [5] is: Experiment 1, 5% in HFA134a, 40° C. for 48-72 h (with agitation).
[6] abbreviates: Experiment 1, 5% in HFA134a, 40° C. for 72 h (with agitation).
The mark [7] stands for this setting: Experiment 1, Control (untreated).
[8] abbreviates: Experiment 2, 5% in HFA134a, 40° C. for 48-72 h (with agitation).
[9] abbreviates: Experiment 2, Control (untreated).

On to `CCC(=O)O[C@]1(C(=O)SCF)[C@H](C)C[C@H]2[C@@H]3C[C@H](F)C4=CC(=O)C=C[C@]4(C)[C@@]3(F)[C@@H](O)C[C@@]21C` [fluticasone propionate], for which the Amorphous content is listed as 2.3% in data set [1] (setting [5]); 1.1% in data set [1] (setting [6]); 7.2% in data set [1] (setting [7]); 1.1% in data set [1] (setting [8]); 2.3% in data set [1] (setting [9]). Besides, the “Particle size distribution by Malvern D10” value in data set [2] (setting [5]) was 0.6 μm; in data set [2] (setting [6]), 0.6 μm; in data set [2] (setting [8]), 0.7 μm; in data set [4] (setting [7]) it was 0.6 μm; in data set [4] (setting [9]), 0.6 μm. For the same compound, the “Particle size distribution by Malvern D90” value is 3.2 μm in data set [2] (setting [5]); 2.9 μm in data set [2] (setting [6]); 3.2 μm in data set [4] (setting [7]); 4.7 μm in data set [4] (setting [8]); 5.0 μm in data set [4] (setting [9]). Further, the “Particle size distribution by Malvern D50” value is on record as 2.0 μm in data set [2] (setting [8]); 1.5 μm in data set [4] (setting [5]); 1.4 μm in data set [4] (setting [6]); 1.5 μm in data set [4] (setting [7]); 1.7 μm in data set [4] (setting [9]). For the same compound, in data set [3], the “Crystallinity by SEM images” value is listed as “increased crystallinity”.

(Values after patent publication US10653704B2, “Inhalable formulation” (Teva Branded Pharmaceutical Products R&D, Inc., priority 2014, dated 2020).)
